This is an account of results in PMC2721768 (Purinergic Signalling, 2008).

Data set [1] concerns ectonucleotidase activity in rat vas deferens tissue. Particulars: at 100 μM; cited from earlier work.
The target of a further data set is T1, rat NTPDase1 (Rattus norvegicus, UniProt P97687).
T1 sequence (P97687 1-511): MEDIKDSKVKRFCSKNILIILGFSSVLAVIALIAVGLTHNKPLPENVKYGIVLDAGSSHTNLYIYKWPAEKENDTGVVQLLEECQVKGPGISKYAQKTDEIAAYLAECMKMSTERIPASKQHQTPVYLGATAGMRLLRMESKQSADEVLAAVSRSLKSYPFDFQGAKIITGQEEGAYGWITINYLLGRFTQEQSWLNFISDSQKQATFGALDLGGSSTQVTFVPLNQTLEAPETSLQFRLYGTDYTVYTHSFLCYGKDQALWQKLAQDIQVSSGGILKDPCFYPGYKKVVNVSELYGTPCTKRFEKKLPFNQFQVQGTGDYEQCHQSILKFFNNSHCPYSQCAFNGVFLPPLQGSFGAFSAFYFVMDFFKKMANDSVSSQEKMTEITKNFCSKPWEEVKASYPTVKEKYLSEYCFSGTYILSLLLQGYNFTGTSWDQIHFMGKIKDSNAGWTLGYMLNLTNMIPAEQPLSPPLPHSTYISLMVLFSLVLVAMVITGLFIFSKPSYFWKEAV
Put plainly: Inhibition of rat NTPDase1. Particulars: for percent inhibition at 1 mM NTPDase1 / inhibition of rat NTPDase1 (in words): rat NTPDase1; for percent inhibition at 1 mM NTPDase1: 1 mM compound, ATP 400 μM; for inhibition at 1000 µM: read-out: percent inhibition at 1 mM NTPDase1.

For the next data set, the system named is P2Y2. The following applies: read-out: IC50 P2Y2 antagonist; cited from earlier work.
Data set [2] can be described thus: Solubility and stability under the test conditions. Particulars: 3 mM in HEPES assay buffer (diluted from 10 mM aqueous solution). The data set is classed as physicochemical.
For the next data set, the target named is T2, rat NTPDase3 (Rattus norvegicus, UniProt A6I415).
T2 sequence (A6I415 1-529): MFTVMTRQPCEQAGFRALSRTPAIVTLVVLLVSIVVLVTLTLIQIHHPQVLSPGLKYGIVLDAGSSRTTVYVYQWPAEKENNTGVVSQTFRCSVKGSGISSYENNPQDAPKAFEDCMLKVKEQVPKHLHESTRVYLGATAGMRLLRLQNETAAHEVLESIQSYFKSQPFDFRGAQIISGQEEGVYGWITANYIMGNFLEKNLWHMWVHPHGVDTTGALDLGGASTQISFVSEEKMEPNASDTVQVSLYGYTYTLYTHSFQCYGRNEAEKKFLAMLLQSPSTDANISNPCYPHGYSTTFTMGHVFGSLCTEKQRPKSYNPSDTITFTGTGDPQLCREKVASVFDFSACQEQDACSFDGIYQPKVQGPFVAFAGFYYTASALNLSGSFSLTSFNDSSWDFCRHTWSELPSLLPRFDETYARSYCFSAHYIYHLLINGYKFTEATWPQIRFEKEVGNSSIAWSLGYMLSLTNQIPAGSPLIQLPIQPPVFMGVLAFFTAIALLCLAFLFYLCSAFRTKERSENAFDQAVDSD
Put plainly: Inhibition of rat NTPDase3. The following applies: for inhibition at 1000 µM: read-out: percent inhibition at 1 mM NTPDase3.

The test system of the next data set is NTPDases1, 2, and 3. Particulars: rat NTPDase1, 2 and 3.
A further data set has as its target T3, rat NTPDase2 (Rattus norvegicus, UniProt O35795).
T3 sequence (O35795 1-495): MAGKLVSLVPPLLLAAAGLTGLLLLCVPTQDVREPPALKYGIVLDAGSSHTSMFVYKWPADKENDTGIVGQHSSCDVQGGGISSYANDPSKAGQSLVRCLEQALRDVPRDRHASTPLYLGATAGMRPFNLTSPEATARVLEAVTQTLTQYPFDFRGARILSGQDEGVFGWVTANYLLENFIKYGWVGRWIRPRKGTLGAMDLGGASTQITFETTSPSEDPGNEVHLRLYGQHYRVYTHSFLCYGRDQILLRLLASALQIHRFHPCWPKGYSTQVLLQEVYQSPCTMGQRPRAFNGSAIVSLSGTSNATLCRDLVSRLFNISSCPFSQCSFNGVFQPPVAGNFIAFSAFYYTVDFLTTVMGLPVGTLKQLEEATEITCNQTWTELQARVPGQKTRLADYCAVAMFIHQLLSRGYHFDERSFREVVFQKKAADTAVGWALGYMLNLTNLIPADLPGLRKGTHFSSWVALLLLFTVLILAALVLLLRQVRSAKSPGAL
As to the kind of experiment: Inhibition of rat NTPDase2. Particulars: for inhibition at 1000 µM: read-out: percent inhibition at 1 mM NTPDase2.

Where [3] appears, read: rat NTPDase3, inhibitor 10, 20, and 30 μM.

Marks after values point to notes of the source that are not given here.

For `Nc1c(S(=O)(=O)O)cc(Nc2ccccc2)c2c1C(=O)c1ccccc1C2=O` [Compound 11], in data set [1], the “inhibition of ATP degradation in rat vas deferens tissue” value was “inactive”.
For `Cc1ccccc1Nc1cc(S(=O)(=O)O)c(N)c2c1C(=O)c1ccccc1C2=O` [Compound 12], at rat NTPDase1, the “percent inhibition at 1 mM NTPDase1” value is “(25%)”.
For the compound `Cc1cccc(Nc2cc(S(=O)(=O)O)c(N)c3c2C(=O)c2ccccc2C3=O)c1C` [Compound 14], the “percent inhibition at 1 mM NTPDase1” value at rat NTPDase1 is on record as “(67%)^b”.
Take `COc1ccccc1Nc1cc(S(=O)(=O)O)c(N)c2c1C(=O)c1ccccc1C2=O` [Compound 16]: the IC50 in the data set on P2Y2 is roughly 9 µM. Moreover, on rat NTPDase1, the “inhibition of rat NTPDase1 (in words)” value is recorded as “weak” and the “percent inhibition at 1 mM NTPDase1” value is on record as “(57%)”.
As for `CCOc1ccccc1Nc1cc(S(=O)(=O)O)c(N)c2c1C(=O)c1ccccc1C2=O` [Compound 17], on rat NTPDase1, the “percent inhibition at 1 mM NTPDase1” value is “(17%)”.
For `Nc1c(S(=O)(=O)O)cc(Nc2ccc(Cl)cc2)c2c1C(=O)c1ccccc1C2=O` [Compound 18, 1-Amino-2-sulfo-4-p-chloroanilinoanthraquinone], in data set [2], the “time until precipitation (in words)” value is on record as “short period of time”. At rat NTPDase3, this compound had a Ki of 16.4 ± 1.6 µM. Also, on rat NTPDase3 (setting [3]), the “effect on Vmax value of NTPDase3” value is “not affected” and the “mechanism of inhibition (NTPDase3 kinetics, Lineweaver-Burk plot)” value is “competitive”. Also, the “effect on Km value of NTPDase3” value at rat NTPDase3 (rat NTPDase3, with increasing concentration of inhibitor (10, 20, 30 μM)) is recorded as “increased”.
For `CC(=O)Nc1ccc(Nc2cc(S(=O)(=O)O)c(N)c3c2C(=O)c2ccccc2C3=O)cc1` [Compound 19], the IC50 in the data set with P2Y2 was 6 to 12 µM. Also, in the data set with NTPDases1, 2, and 3, the “NTPDase inhibitory activity (in words)” value is “nearly inactive”. In addition, on rat NTPDase1, the “percent inhibition at 1 mM NTPDase1” value is listed as “(15%)”.
With `Nc1c(S(=O)(=O)[O-])cc(Nc2cccc3ccccc23)c2c1C(=O)c1ccccc1C2=O.[Na+]` [Compound 20, Sodium 1-amino-4-(1-naphthylamino)-9,10-dioxo-9,10-dihydroanthracene 2-sulfonate], on rat NTPDase1, the “inhibition of rat NTPDase1 (in words)” value was “not inhibitory” and the inhibition at 1000 µM came to 0%. The “inhibition of rat NTPDase2 (in words)” value on rat NTPDase2 (rat NTPDase2) is reported as “not inhibitory”. Further, the inhibition at 1000 µM on rat NTPDase2 came out at 0%.
With `Nc1c(S(=O)(=O)O)cc(Nc2ccc3ccccc3c2)c2c1C(=O)c1ccccc1C2=O` [Compound 21, Sodium 1-amino-4-(2-naphthylamino)-9,10-dioxo-9,10-dihydroanthracene 2-sulfonate], the affinity at rat NTPDase3 corresponds to a Ki of 2.22 ± 1.03 µM.
As for `COc1ccc(CCNc2cc(S(=O)(=O)O)c(N)c3c2C(=O)c2ccccc2C3=O)cc1OC` [Compound 22, Sodium 1-amino-4-(3,4-dimethoxyphenethylamino)-9,10-dioxo-9,10-dihydroanthracene 2-sulfonate], the figures for the Ki on rat NTPDase1, on rat NTPDase2 and at rat NTPDase3 were 173 ± 6 µM, 54.1 ± 6.8 µM and 23.4 ± 0.4 µM, respectively.
`Cc1cc(Nc2ccccc2)c2c(c1N)C(=O)c1ccccc1C2=O` [Compound 23, 1-Amino-2-methyl-4-phenylaminoanthraquinone]: the inhibition at 1000 µM on rat NTPDase1, at rat NTPDase2 and at rat NTPDase3 was 0% throughout.
Take `Cc1cccc(Nc2cc(C)c(N)c3c2C(=O)c2ccccc2C3=O)c1` [Compound 24, 1-Amino-2-methyl-4-(3-methylphenylamino)anthraquinone]: the inhibition at 1000 µM on rat NTPDase1, on rat NTPDase2 and at rat NTPDase3 was 0% throughout.
Consider `Cc1ccc(Nc2cc(C)c(N)c3c2C(=O)c2ccccc2C3=O)cc1` [Compound 25, 1-Amino-2-methyl-4-(4-methylphenylamino)anthraquinone], for which the inhibition at 1000 µM at rat NTPDase1, on rat NTPDase2 and at rat NTPDase3 was 0% each time.
On to `Cc1cc(Nc2cccc3ccccc23)c2c(c1N)C(=O)c1ccccc1C2=O` [Compound 26, 1-Amino-2-methyl-4-(1-naphthylamino)anthraquinone], for which the inhibition at 1000 µM on rat NTPDase1, on rat NTPDase2 and at rat NTPDase3 was 0% in each case.
For `COS(=O)(=O)c1cc(Br)c2c(c1N)C(=O)c1ccccc1C2=O` [Compound 27, 1-Amino-4-bromoanthraquinone-2-sulfonic acid methyl ester], the inhibition at 1000 µM at rat NTPDase1, on rat NTPDase2 and on rat NTPDase3 was 0% throughout.
Turning to `Nc1c(S(=O)(=O)Oc2ccccc2[N+](=O)[O-])cc(Br)c2c1C(=O)c1ccccc1C2=O` [Compound 28, 1-Amino-4-bromoanthraquinone-2-sulfonic acid 2-nitrophenyl ester], the inhibition at 1000 µM at rat NTPDase1, at rat NTPDase2 and at rat NTPDase3 was 0% each time.
For `Nc1c(S(=O)(=O)Oc2cccc([N+](=O)[O-])c2)cc(Br)c2c1C(=O)c1ccccc1C2=O` [Compound 29, 1-Amino-4-bromoanthraquinone-2-sulfonic acid 3-nitrophenyl ester], the inhibition at 1000 µM at rat NTPDase1, at rat NTPDase2 and on rat NTPDase3 was 0% throughout.
Consider `Nc1c(S(=O)(=O)Oc2ccc([N+](=O)[O-])cc2)cc(Br)c2c1C(=O)c1ccccc1C2=O` [Compound 30, 1-Amino-4-bromoanthraquinone-2-sulfonic acid 4-nitrophenyl ester], for which the inhibition at 1000 µM at rat NTPDase1, at rat NTPDase2 and at rat NTPDase3 was 0% throughout.
As for `Nc1c(S(=O)(=O)Nc2ccccc2)cc(Br)c2c1C(=O)c1ccccc1C2=O` [Compound 31, 1-Amino-4-bromoanthraquinone-2-sulfonic acid phenyl amide], the inhibition at 1000 µM on rat NTPDase1, on rat NTPDase2 and at rat NTPDase3 was 0% each time.
As for `Nc1c(S(=O)(=O)NCc2ccccc2)cc(Br)c2c1C(=O)c1ccccc1C2=O` [Compound 32, 1-Amino-4-bromoanthraquinone-2-sulfonic acid benzylamide], the inhibition at 1000 µM at rat NTPDase1, on rat NTPDase2 and on rat NTPDase3 was 0% in each case.
In the case of `Nc1c(S(=O)(=O)NCCc2ccccc2)cc(Br)c2c1C(=O)c1ccccc1C2=O` [Compound 33, 1-Amino-4-bromoanthraquinone-2-sulfonic acid phenethylamide], the inhibition at 1000 µM on rat NTPDase1, at rat NTPDase2 and on rat NTPDase3 was 0% in each case.
